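These data come from cells grown in 96-well plates and exposed to compound for 48 hours at five concentrations. The concentration for 50% growth inhibition is given as GI50. TGI: concentration producing complete growth inhibition.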
Assays:
Assay in all cases: DTP human tumour cell line panel, 48 h
[1] = test system: HCT-15 colon
[2] = test system: SK-MEL-2 melanoma
[3] = test system: HCC-2998 colon
[4] = test system: SNB-75 CNS
[5] = test system: HT29 colon
[6] = test system: SN12C renal
[7] = test system: HCT-116 colon
[8] = test system: BT-549 breast
[9] = test system: DU-145 prostate
[10] = test system: TK-10 renal
[11] = test system: OVCAR-4 ovarian
[12] = test system: M14 melanoma
[13] = test system: IGROV1 ovarian
[14] = test system: EKVX NSCLC
[15] = test system: HS 578T breast
[16] = test system: PC-3 prostate
[17] = test system: HL-60(TB) leukemia
[18] = test system: KM12 colon
[19] = test system: NCI-H460 lung
[20] = test system: UACC-257 melanoma
[21] = test system: UACC-62 melanoma
[22] = test system: RPMI-8226 leukemia
[23] = test system: COLO 205 colon
[24] = test system: NCI-H226 lung
[25] = test system: NCI-H23 lung
[26] = test system: SNB-19 CNS
[27] = test system: NCI-H522 lung
[28] = test system: LOX IMVI melanoma
[29] = test system: T-47D breast

For `O=C(O)COc1ccc2c(=O)c3sc4c(=O)c5ccccc5c(=O)c4c3c(=O)c2c1`, the GI50 [1] was 4.41 µM, the TGI [1] was 18.2 µM and the GI50 [2] was 19.8 µM. The TGI [2] was 49.3 µM, the GI50 [3] was 11.2 µM and the TGI [3] was 26.7 µM. For the same compound, the GI50 [4] was 2060 nM, the TGI [4] was 11.7 µM and the GI50 [5] was 22 µM. The TGI [5] was greater than 100 µM, the GI50 [6] was 12.3 µM and the TGI [6] was 29.8 µM. It also gave a GI50 [7] of 15.7 µM, a TGI [7] of 63.3 µM and a GI50 [8] of 6.99 µM. For the same compound, the TGI [8] was 21.8 µM, the GI50 [9] was 2150 nM and the TGI [9] was 5.34 µM. For the same compound, the GI50 [10] was 23 µM, the TGI [10] was 46.5 µM and the GI50 [11] was 14.1 µM. It also gave a TGI [11] of 27.3 µM, a GI50 [12] of 2690 nM and a TGI [12] of 7.53 µM. The GI50 [13] was 18.3 µM, the TGI [13] was 48.3 µM and the GI50 [14] was 16.8 µM. The TGI [14] was 78.8 µM, the GI50 [15] was 3.4 µM and the TGI [15] was 19.2 µM. It also gave a GI50 [16] of 26.8 µM, a TGI [16] greater than 100 µM and a GI50 [17] of 24.1 µM. For the same compound, the TGI [17] was 61.3 µM, the GI50 [18] was 24.3 µM and the TGI [18] was greater than 100 µM. It also gave a GI50 [19] of 3.51 µM, a TGI [19] of 10.4 µM and a GI50 [20] of 16.2 µM. It also gave a TGI [20] of 34.7 µM, a GI50 [21] of 12 µM and a TGI [21] of 39.4 µM. For the same compound, the GI50 [22] was 27.6 µM, the TGI [22] was 77.6 µM and the GI50 [23] was 13.7 µM. It also gave a TGI [23] of 31.4 µM, a GI50 [24] of 15 µM and a TGI [24] of 41.1 µM. It also gave a GI50 [25] of 2710 nM, a TGI [25] of 8.57 µM and a GI50 [26] of 7.51 µM. The TGI [26] was 23.7 µM, the GI50 [27] was 19.3 µM and the TGI [27] was 53.4 µM. The GI50 [28] was 9.18 µM, the TGI [28] was 61.1 µM and the GI50 [29] was 21.4 µM.
